The record followed here is ChEMBL document CHEMBL3739424, “Synthesis and biological evaluation of 2,3-diarylthiophene analogues of combretastatin A-4” (Medchemcomm, 2015).

Assay [1] can be described thus: Anti-proliferative activity against human HT1080 cells after 72 hrs by MTT assay. Conditions: HT-1080, 72 h. Type of assay: functional, cell-based. A general note: Tetrazolium assays rely on reduction of a dye to a coloured formazan, in cell work by metabolically active cells.
Assay [2] is described as follows: Anti-proliferative activity against human SGC7901 cells after 72 hrs by MTT assay. Type of assay: functional, cell-based. Conditions: SGC-7901, 72 h.
The test system of assay [3] is KB. The experiment in a line: Anti-proliferative activity against human KB cells after 72 hrs by MTT assay. Type of assay: functional, cell-based.
The target of assay [4] is T1, Tubulin (Homo sapiens) (UniProt P68371+Q9H4B7+P0DPH7+P68366+Q13509+Q71U36+P04350+Q3ZCM7+P07437+P68363+Q9BQE3+Q6PEY2+Q13885+Q9BVA1+Q9BUF5). The experiment in a line: (§1) Inhibition of tubulin (unknown origin) polymerization pre-incubated for 1 min measured for 1 min interval for 90 mins by fluorescence based assay. The class given is protein-complex assay.
The target in assay [5] is Tubulin. The description is as §1. The class given is protein-complex assay, Homo sapiens.
Assay [6] has as its target T1, Tubulin (Homo sapiens). The experiment in a line: Inhibition of tubulin (unknown origin) polymerization at 10 uM pre-incubated for 1 min measured for 1 min interval for 90 mins by fluorescence based assay. Type of assay: protein-complex assay.
Assay [7] deals with T1, Tubulin (Homo sapiens). Nature of the assay: Inhibition of tubulin (unknown origin) polymerization at 2.5 uM pre-incubated for 1 min measured for 1 min interval for 90 mins by fluorescence based assay. The class given is protein-complex assay.
Assay [8] concerns the target T1, Tubulin (Homo sapiens). The experiment in a line: Inhibition of tubulin (unknown origin) polymerization at 5 uM pre-incubated for 1 min measured for 1 min interval for 90 mins by fluorescence based assay. The class given is protein-complex assay.
In assay [9] the target is T1, Tubulin (Homo sapiens). Nature of the assay: Inhibition of tubulin (unknown origin) polymerization at 15 uM pre-incubated for 1 min measured for 1 min interval for 90 mins by fluorescence based assay. Type of assay: protein-complex assay.
Assay [10] has as its system SGC-7901. Nature of the assay: Induction of microtubule network disruption in human SGC7901 cells at 0.4 uM after 24 hrs using DAPI immunofluorescence staining. The class given is cell-based.
Assay [11] deals with T1, Tubulin (Homo sapiens). The experiment in a line: Inhibition of tubulin (unknown origin) polymerization at 1 uM pre-incubated for 1 min measured for 1 min interval for 90 mins by fluorescence based assay. The class given is protein-complex assay.
Assay [12] concerns the target T1, Tubulin (Homo sapiens). The experiment in a line: Inhibition of tubulin (unknown origin) polymerization at 2 uM pre-incubated for 1 min measured for 1 min interval for 90 mins by fluorescence based assay. Type of assay: protein-complex assay.
Assay [13] addresses T1, Tubulin (Homo sapiens). The experiment in a line: Inhibition of tubulin (unknown origin) polymerization at 4 uM pre-incubated for 1 min measured for 1 min interval for 90 mins by fluorescence based assay. Type of assay: protein-complex assay.

The source made the active and inactive calls. No cut-off for these calls is given here. Where only a bound is given, the exact number is not on record here.

As to `COc1ccc(-c2sc(C(=O)O)cc2-c2cc(OC)c(OC)c(OC)c2)cc1O`, the IC50 (as a rule, the point on the concentration scale where inhibition reaches its midpoint) in assay [1] was 7.51 µM; in [2] it was 6.1 µM; in assay [3], 11.2 µM.
The like results for `COc1ccc(-c2cc(C(=O)O)sc2-c2cc(OC)c(OC)c(OC)c2)cc1OCc1ccccc1` were, in that order, more than 100 µM, more than 100 µM and more than 100 µM.
`COc1ccc(-c2ccsc2-c2cc(OC)c(OC)c(OC)c2)cc1OCc1ccccc1`: the IC50 in assay [1], in [2] and in assay [3] was more than 100 µM each time.
For `COc1ccc(-c2sccc2-c2cc(OC)c(OC)c(OC)c2)cc1`, the figures for the IC50 in [1], in [2] and in assay [3] were 4.59 µM, 5.47 µM and 8.88 µM, respectively.
In the case of `CCOC(=O)c1cc(-c2cc(OC)c(OC)c(OC)c2)c(-c2ccc(OC)c(O)c2)s1`, the values for the 50% inhibitory concentration (IC50) in assay [1], in [2] and in assay [3] were 3.22 µM, 1.58 µM and 1.25 µM, respectively.
As to `COc1cc(-c2cc(C(=O)O)sc2-c2cccc(Br)c2)cc(OC)c1OC`, the results for the half-maximal inhibitory concentration (IC50) in assay [1], in assay [2] and in [3] were more than 100 µM, 93.4 µM and 32.3 µM, respectively.
For `COc1cc(-c2ccsc2-c2cccc(Br)c2)cc(OC)c1OC`, the IC50 in assay [1] was more than 100 µM; in [2], 46.1 µM; in assay [3], more than 100 µM.
As for `COc1ccc(-c2cc(C(=O)O)sc2-c2cc(OC)c(OC)c(OC)c2)cc1[N+](=O)[O-]`, the IC50 in assay [1] worked out at 38.1 µM; in assay [2] it was 21.6 µM; in assay [3], 43.7 µM.
For the compound `COc1cc(-c2ccsc2-c2ccc3ccccc3c2)cc(OC)c1OC`, the 50% inhibitory concentration (IC50) in assay [1] was determined as 5.43 µM; in assay [2] it was 5.89 µM; in [3], 3.66 µM.
On to `COc1ccc(-c2cc(C(=O)O)sc2-c2cc(OC)c(OC)c(OC)c2)cc1O`, for which the IC50 in [1] is 11.4 µM; in assay [2] it was 17.5 µM; in assay [3] it was 21.8 µM.
The like results for `COc1ccc(-c2ccsc2-c2cc(OC)c(OC)c(OC)c2)cc1` were, in that order, 3.62 µM, 2.74 µM and 7.4 µM.
Regarding `CCOC(=O)c1cc(-c2ccc(OC)c([N+](=O)[O-])c2)c(-c2cc(OC)c(OC)c(OC)c2)s1`, the figures for the IC50 in [1], in assay [2] and in assay [3] were 26.1 µM, 19.4 µM and 24 µM, respectively.
Consider `CCOC(=O)c1cc(-c2ccc(OC)c(OCc3ccccc3)c2)c(-c2cc(OC)c(OC)c(OC)c2)s1`, for which the IC50 in assay [1], in assay [2] and in [3] was more than 100 µM each time.
As for `COc1ccc(-c2sccc2-c2cc(OC)c(OC)c(OC)c2)cc1O`, the IC50 was 1.94 µM in assay [1], 0.58 µM in [2], 6.27 µM in assay [3] and 9.76 µM in assay [5]. The inhibition (commonly the percentage by which the read-out fell short of the control) in assay [4] is “Dose-dependent effect”; in assay [6], 48%; in assay [7] it was 7.4%; in assay [8], 20%; in assay [9] it was 72.3%.
`CCOC(=O)c1cc(-c2ccc(OC)c(O)c2)c(-c2cc(OC)c(OC)c(OC)c2)s1`: the IC50 in assay [1] is 82.5 µM; in [2], 20 µM; in [3] it was more than 100 µM.
Taken in the same sequence, the figures for `COc1ccc(-c2cc(C(=O)O)sc2-c2cc(OC)c(OC)c(OC)c2)cc1` were 5.81 µM, 4.22 µM and 8.65 µM.
As to `CCOC(=O)c1cc(-c2cc(OC)c(OC)c(OC)c2)c(-c2ccc(OC)c(OCc3ccccc3)c2)s1`, the concentration for half-maximal inhibition (IC50) in [1], in assay [2] and in assay [3] was more than 100 µM each time.
`CCOC(=O)c1cc(-c2ccc(OC)cc2)c(-c2cc(OC)c(OC)c(OC)c2)s1`: the results for the IC50 in [1], in assay [2] and in assay [3] were 7.63 µM, 6.82 µM and 10.2 µM, respectively.
The like results for `COc1ccc(-c2sc(C(=O)O)cc2-c2cc(OC)c(OC)c(OC)c2)cc1` were, in that order, 6.77 µM, 7.8 µM and 10.4 µM.
On to `COc1ccc(-c2sc(C(=O)O)cc2-c2cc(OC)c(OC)c(OC)c2)cc1[N+](=O)[O-]`, for which the IC50 in [1] was 37.2 µM; in assay [2] it was 23.3 µM; in [3], 35.9 µM.
As for `COc1ccc(/C=C\c2cc(OC)c(OC)c(OC)c2)cc1O` [COMBRETASTATIN A4], the IC50 in assay [1] was found to be 0.011 µM; in assay [2], 0.024 µM; in assay [3] it was 0.016 µM. Moreover, in assay [10], the result was Active.
In the case of `COc1ccc(-c2ccsc2-c2cc(OC)c(OC)c(OC)c2)cc1O`, the IC50 amounted to 2.12 µM in assay [1], 0.52 µM in assay [2], 1.53 µM in assay [3] and 5.01 µM in assay [5]. For the same compound, the inhibition result in [4] is “Dose-dependent effect”; in [11] it was 10%; in assay [12], 23.3%; in [13], 39.3%; in [6], 87.5%. Also, the result in [10] was Active.
As to `CCOC(=O)c1cc(-c2cc(OC)c(OC)c(OC)c2)c(-c2ccc3ccccc3c2)s1`, the IC50 is 1.15 µM in assay [1], 4.34 µM in [2] and 5.89 µM in assay [3].
Taken in the same sequence, the figures for `COc1ccc(-c2sc(C(=O)O)cc2-c2cc(OC)c(OC)c(OC)c2)cc1OCc1ccccc1` were more than 100 µM, more than 100 µM and more than 100 µM.
The like results for `COc1ccc(-c2ccsc2-c2cc(OC)c(OC)c(OC)c2)cc1[N+](=O)[O-]` were, in that order, 8.04 µM, 10.2 µM and 21 µM.
On to `COc1ccc(-c2sccc2-c2cc(OC)c(OC)c(OC)c2)cc1OCc1ccccc1`, for which the half-maximal inhibitory concentration (IC50) in assay [1], in [2] and in assay [3] was more than 100 µM in each case.
With `CCOC(=O)c1cc(-c2cc(OC)c(OC)c(OC)c2)c(-c2ccc(OC)cc2)s1`, the IC50 in [1] worked out at 8.37 µM; in [2], 9.76 µM; in [3], 13.2 µM.
With `COc1ccc(-c2sccc2-c2cc(OC)c(OC)c(OC)c2)cc1[N+](=O)[O-]`, the results for the 50% inhibitory concentration (IC50) in assay [1], in assay [2] and in assay [3] were 2.1 µM, 3.31 µM and 10.6 µM, respectively.
Taken in the same sequence, the figures for `COc1cc(-c2cc(C(=O)O)sc2-c2ccc3ccccc3c2)cc(OC)c1OC` were 13.4 µM, 0.38 µM and 5.64 µM.
Taken in the same sequence, the figures for `CCOC(=O)c1cc(-c2cc(OC)c(OC)c(OC)c2)c(-c2ccc(OC)c([N+](=O)[O-])c2)s1` were 12.7 µM, 18.1 µM and 15.8 µM.
Take `CCOC(=O)c1cc(-c2cc(OC)c(OC)c(OC)c2)c(-c2cccc(Br)c2)s1`: the half-inhibitory concentration (IC50) in assay [1], in [2] and in assay [3] was more than 100 µM each time.
